From patent US20210395239A1 (Hoffmann-La Roche Inc., priority 2018, published 2021)

Molecular target: T1, human TLR8 (Homo sapiens, UniProt Q9NR97)
T1 construct: host or cells: HEK293 (HEK-Blue hTLR8)
T1 sequence (Q9NR97 27-1041): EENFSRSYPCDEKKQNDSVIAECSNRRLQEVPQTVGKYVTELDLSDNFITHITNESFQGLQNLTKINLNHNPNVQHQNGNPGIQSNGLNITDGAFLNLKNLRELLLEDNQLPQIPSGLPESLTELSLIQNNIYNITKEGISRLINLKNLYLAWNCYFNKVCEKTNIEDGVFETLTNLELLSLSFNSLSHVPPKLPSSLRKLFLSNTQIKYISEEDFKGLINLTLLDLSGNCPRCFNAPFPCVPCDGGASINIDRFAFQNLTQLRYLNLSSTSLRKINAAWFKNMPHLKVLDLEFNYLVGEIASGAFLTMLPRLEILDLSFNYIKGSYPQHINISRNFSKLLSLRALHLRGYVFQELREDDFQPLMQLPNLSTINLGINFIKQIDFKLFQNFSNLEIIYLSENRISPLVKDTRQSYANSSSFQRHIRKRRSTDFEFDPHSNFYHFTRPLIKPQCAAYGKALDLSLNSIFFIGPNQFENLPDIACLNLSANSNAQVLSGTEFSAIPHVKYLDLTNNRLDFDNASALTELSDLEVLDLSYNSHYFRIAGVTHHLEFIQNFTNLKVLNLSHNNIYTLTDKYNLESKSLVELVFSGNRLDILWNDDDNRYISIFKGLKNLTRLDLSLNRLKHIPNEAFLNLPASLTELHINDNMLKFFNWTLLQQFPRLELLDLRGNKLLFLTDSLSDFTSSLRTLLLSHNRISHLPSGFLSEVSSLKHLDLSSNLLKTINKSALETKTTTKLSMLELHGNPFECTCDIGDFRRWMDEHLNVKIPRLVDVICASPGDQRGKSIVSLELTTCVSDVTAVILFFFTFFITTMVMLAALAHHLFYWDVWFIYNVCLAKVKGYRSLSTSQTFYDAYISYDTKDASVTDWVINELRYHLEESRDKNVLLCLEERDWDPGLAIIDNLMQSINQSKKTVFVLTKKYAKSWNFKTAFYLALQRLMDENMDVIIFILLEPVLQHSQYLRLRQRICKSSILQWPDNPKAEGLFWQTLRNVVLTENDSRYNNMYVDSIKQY
Assay: HEK293-Blue-hTLR-8 cells assay (SEAP reporter, R848 stimulation)
Format: cell-based
Conditions: HEK293-Blue-hTLR8 cells, R848, 20 hrs; read-out: HEK/hTLR8 IC50
From the text: HEK293-Blue-hTLR-8 Cells Assay:
A stable HEK293-Blue-hTLR-8 cell line was purchased from InvivoGen (Cat. #: hkb-ht1r8, San Diego, Calif., USA). These cells were originally designed for studying the stimulation of human TLR8 by monitoring the activation of NF-κB. A SEAP (secreted embryonic alkaline phosphatase) reporter gene was placed under the control of the IFN-β minimal promoter fused to five NF-κB and AP-1-binding sites. The SEAP was induced by activating NF-κB and AP-1 via stimulating HEK-Blue hTLR8 cells with TLR8 ligands. Therefore the reporter expression was declined by TLR8 antagonist under the stimulation of a ligand, such as R848, for incubation of 20 hrs. The cell culture supernatant SEAP reporter activity was determined using QUANTI-Blue™ kit (Cat. #: rep-qb1, Invivogen, San Diego, Ca, USA) at a wavelength of 640 nm, a detection medium that turns purple or blue in the presence of alkaline phosphatase.
HEK293-Blue-hTLR8 cells were incubated at a density of 250,000˜450,000 cells/mL in a volume of 170 μL in a 96-well plate in Dulbecco's Modified Eagle's medium (DMEM) containing 4.5 g/L glucose, 50 U/mL penicillin, […], […], 2 mM L-glutamine, 10% (v/v) heat-inactivated fetal bovine serum with addition of 20 μL test compound in a serial dilution in the presence of final DMSO at 1% and 10 μL of 60 uM R848 in above DMEM, perform incubation under 37° C. in a CO2 incubator for 20 hrs. Then 20 μL of the supernatant from each well was incubated with 180 μL Quanti-blue substrate solution at 37° C. for 2 hrs and the absorbance was read at 620˜655 nm using a spectrophotometer. The signaling pathway that TLR8 activation leads to downstream NF-κB activation has been widely accepted, and therefore similar reporter assay was modified for evaluating TLR8 antagonist.

IC50 [nM]	Compound
1	CO[C@H]1CN(c2nc(C)cc(N3CCN(C[C@H]4CN(c5ccc(C#N)c6nccnc56)C[C@@H](C)O4)CC3)n2)C[C@@H]1N [Example 106, 8-[(2S,6R)-2-[[4-[2-[(3S,4S)-3-amino-4-methoxy-pyrrolidin-1-yl]-6-methyl-pyrimidin-4-yl]piperazin-1-yl]methyl]-6-methyl-morpholin-4-yl]quinoxaline-5-carbonitrile]
1	C[C@@H]1CN(c2ccc(C#N)c3nccnc23)C[C@H](CN2CCN(c3ccnc(N4C[C@H](N)[C@@H](F)C4)n3)CC2)O1 [Example 107, 8-[(2S,6R)-2-[[4-[2-[(3S,4S)-3-amino-4-fluoro-pyrrolidin-1-yl]pyrimidin-4-yl]piperazin-1-yl]methyl]-6-methyl-morpholin-4-yl]quinoxaline-5-carbonitrile]
1	C[C@@H]1CN(c2ccc(C#N)c3nccnc23)C[C@H](CN2CCN(c3ccnc(N4C[C@@H](N)[C@@H](F)C4)n3)CC2)O1 [Example 108, 8-[(2S,6R)-2-[[4-[2-[(3R,4S)-3-amino-4-fluoro-pyrrolidin-1-yl]pyrimidin-4-yl]piperazin-1-yl]methyl]-6-methyl-morpholin-4-yl]quinoxaline-5-carbonitrile]
2	COC1CCN(c2nccc(N3CCN(C[C@H]4CN(c5ccc(C#N)c6ncccc56)C[C@@H](C)O4)CC3)n2)CC1N (stereo partly drawn) [Example 109, 5-[(2S,6R)-2-[[4-[2-(3-amino-4-methoxy-1-piperidyl)pyrimidin-4-yl]piperazin-1-yl]methyl]-6-methyl-morpholin-4-yl]quinoline-8-carbonitrile]
2	C[C@@H]1CN(c2ccc(C#N)c3ncccc23)C[C@H](CN2CCN(c3ccnc(N4C[C@H](N)[C@@H](F)C4)n3)CC2)O1 [Example 110, 5-[(2S,6R)-2-[[4-[2-[(3S,4S)-3-amino-4-fluoro-pyrrolidin-1-yl]pyrimidin-4-yl]piperazin-1-yl]methyl]-6-methyl-morpholin-4-yl]quinoline-8-carbonitrile]
1	C[C@@H]1CN(c2ccc(C#N)c3nccnc23)C[C@H](CN2CCN(c3ccnc(N4CC[C@H](N)[C@H](F)C4)n3)CC2)O1 [Example 111, 8-[(2S,6R)-2-[[4-[2-[(3R,4S)-4-amino-3-fluoro-1-piperidyl]pyrimidin-4-yl]piperazin-1-yl]methyl]-6-methyl-morpholin-4-yl]quinoxaline-5-carbonitrile]
1	Cc1cc(N2CCN(C[C@H]3CN(c4ccc(C#N)c5nccnc45)C[C@@H](C)O3)CC2)nc(N2CC(N)C2)n1 [Example 112, 8-[(2S,6R)-2-[[4-[2-(3-aminoazetidin-1-yl)-6-methyl-pyrimidin-4-yl]piperazin-1-yl]methyl]-6-methyl-morpholin-4-yl]quinoxaline-5-carbonitrile]
1	C[C@@H]1CN(c2ccc(C#N)c3nccnc23)C[C@H](CN2CCN(c3ccnc(N4CC[C@@H](N)[C@H](F)C4)n3)CC2)O1 [Example 113, 8-[(2S,6R)-2-[[4-[2-[(3R,4R)-4-amino-3-fluoro-1-piperidyl]pyrimidin-4-yl]piperazin-1-yl]methyl]-6-methyl-morpholin-4-yl]quinoxaline-5-carbonitrile]
1	Cc1cc(N2CCNCC2)nc(N2CCN(C[C@H]3CN(c4ccc(C#N)c5nccnc45)C[C@@H](C)O3)CC2)n1 [Example 114, 8-[(2R,6S)-2-methyl-6-[[4-(4-methyl-6-piperazin-1-yl-pyrimidin-2-yl)piperazin-1-yl]methyl]morpholin-4-yl]quinoxaline-5-carbonitrile]
1	Cc1cc(N2C[C@@H](N)[C@@H](F)C2)nc(N2CCN(C[C@H]3CN(c4ccc(C#N)c5nccnc45)C[C@@H](C)O3)CC2)n1 [Example 115, 8-[(2S,6R)-2-[[4-[4-[(3R,4S)-3-amino-4-fluoro-pyrrolidin-1-yl]-6-methyl-pyrimidin-2-yl]piperazin-1-yl]methyl]-6-methyl-morpholin-4-yl]quinoxaline-5-carbonitrile]
5	Cc1ccc(N2C[C@H](CN3CCN(c4nccc(N5CCNCC5)n4)CC3)O[C@H](C)C2)c2nccnc12 [Example 116, (2R,6S)-2-methyl-4-(8-methylquinoxalin-5-yl)-6-[[4-(4-piperazin-1-ylpyrimidin-2-yl)piperazin-1-yl]methyl]morpholine]
7	Cc1ccc(N2C[C@H](CN3CCN(c4ccnc(N5CCNCC5)n4)CC3)O[C@H](C)C2)c2nccnc12 [Example 117, (2R,6S)-2-methyl-4-(8-methylquinoxalin-5-yl)-6-[[4-(2-piperazin-1-ylpyrimidin-4-yl)piperazin-1-yl]methyl]morpholine]
1	C[C@@H]1CN(c2ccc(C#N)c3nccnc23)C[C@H](CN2CCN(c3nccc(N4CC(N)C4)n3)CC2)O1 [Example 118, 8-[(2S,6R)-2-[[4-[4-(3-aminoazetidin-1-yl)pyrimidin-2-yl]piperazin-1-yl]methyl]-6-methyl-morpholin-4-yl]quinoxaline-5-carbonitrile]
1	C[C@@H]1CN(c2ccc(C#N)c3nccnc23)C[C@H](CN2CCN(c3nccc(N4C[C@@H](N)[C@H](F)C4)n3)CC2)O1 [Example 119, 8-[(2S,6R)-2-[[4-[4-[(3R,4R)-3-amino-4-fluoro-pyrrolidin-1-yl]pyrimidin-2-yl]piperazin-1-yl]methyl]-6-methyl-morpholin-4-yl]quinoxaline-5-carbonitrile]
1	CO[C@@H]1CN(c2cc(C)nc(N3CCN(C[C@H]4CN(c5ccc(C#N)c6nccnc56)C[C@@H](C)O4)CC3)n2)C[C@@H]1N [Example 120, 8-[(2S,6R)-2-[[4-[4-[(3S,4R)-3-amino-4-methoxy-pyrrolidin-1-yl]-6-methyl-pyrimidin-2-yl]piperazin-1-yl]methyl]-6-methyl-morpholin-4-yl]quinoxaline-5-carbonitrile]
1	CO[C@@H]1CN(c2cc(C)nc(N3CCN(C[C@H]4CN(c5ccc(C#N)c6nccnc56)C[C@@H](C)O4)CC3)n2)C[C@H]1N [Example 121, 8-[(2S,6R)-2-[[4-[4-[(3R,4R)-3-amino-4-methoxy-pyrrolidin-1-yl]-6-methyl-pyrimidin-2-yl]piperazin-1-yl]methyl]-6-methyl-morpholin-4-yl]quinoxaline-5-carbonitrile]
1	CO[C@H]1CN(c2cc(C)nc(N3CCN(C[C@H]4CN(c5ccc(C#N)c6nccnc56)C[C@@H](C)O4)CC3)n2)C[C@H]1N [Example 122, 8-[(2S,6R)-2-[[4-[4-[(3R,4S)-3-amino-4-methoxy-pyrrolidin-1-yl]-6-methyl-pyrimidin-2-yl]piperazin-1-yl]methyl]-6-methyl-morpholin-4-yl]quinoxaline-5-carbonitrile]
1	Cc1cc(N2CC(N)C2)nc(N2CCN(C[C@H]3CN(c4ccc(C#N)c5nccnc45)C[C@@H](C)O3)CC2)n1 [Example 123, 8-[(2S,6R)-2-[[4-[4-(3-aminoazetidin-1-yl)-6-methyl-pyrimidin-2-yl]piperazin-1-yl]methyl]-6-methyl-morpholin-4-yl]quinoxaline-5-carbonitrile]
